Measured values from patent US20230091047A1 (priority 2019, published 2023).
Where two headings read alike, the source gives them in different places.

Legend:
[1] = test system: HBV (HepG2.117 cell line, inducibly HBV producing); experiment: Anti-HBV activity: intracellular HBV DNA by real-time PCR in HepG2.117 cells after 3 days of treatment; type: cell-based, hepatitis B virus
In short: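 Antiviral effect is expressed through intracellular HBV DNA levels, determined by real-time PCR with a virus-specific probe. These levels were measured after 3 days of treatment with compound dilutions, in HepG2.117 cells induced to replicate HBV.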

in vitro = type: cell-based; details: human, HepG2 or HepG2.117 cells, ATPlite, mean value
In short: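 Luminescent ATP quantitation served as the viability endpoint following a 3- or 4-day incubation with test compounds.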

[2] = Hepatitis B virus, HepG2.117, 72 h, HepG2.117 cells, intracellular HBV DNA by real-time PCR, 3 days of treatment, mean value; read-out: EC50 (μM, mean value)
[3] = 3-days incubation (not marked with *)
[4] = Hepatitis B virus, HepG2.117, 72 h, HepG2.117 cells, 3 days of treatment, intracellular HBV DNA by real-time PCR; mean value; read-out: EC50 (μM, mean value)
[5] = 3-days incubation (unmarked values)

## CNC(=O)c1ccc(-n2c(NC(C)C)nc3c(c2=O)C[C@@H](C)N(C(=O)c2ccc(Cl)c(OC(F)(F)F)c2)C3)cc1 [Compound C635]
[1]; [2]
  EC50: 0.07 µM
In vitro; [3]
  CC50 at 3 days: > 50 µM

## CCN(CC)c1nc2c(c(=O)n1-c1ccc(C(=O)NC)nc1)C[C@@H](C)N(C(=O)c1ccc(Cl)c(Cl)c1)C2 [Compound C625]
[1]; [2]
  EC50: 0.18 µM
In vitro; [3]
  CC50 at 3 days: > 50 µM

## CNC(=O)c1ccc(-n2c(NC(C)C)nc3c(c2=O)C[C@@H](C)N(C(=O)c2cc(F)c(Br)cc2Cl)C3)cc1 [Compound C592]
[1]; [2]
  EC50: 0.7 µM
In vitro; [3]
  CC50 at 3 days: > 50 µM

## COc1ccc(CNc2nc3c(c(=O)n2C2CCCN(S(C)(=O)=O)C2)CCN(C(=O)c2ccc(Cl)c(Cl)c2)C3)cc1 (stereo not drawn) [Compound C83, 7-(3,4-dichlorobenzoyl)-3-[1-(methanesulfonyl)piperidin-3-yl]-2-{[(4-methoxyphenyl)methyl]amino}-5,6,7,8-tetrahydropyrido[3,4-d]pyrimidin-4(3H)-one]
[1]; [4]
  EC50: 1.44 µM
In vitro; [5]
  CC50 at 3 days: > 50 µM

## COc1ccccc1-n1c(N2CCOCC2)nc2c(c1=O)CCN(C(=O)c1ccc(Cl)c(Cl)c1)C2 [Compound C40, 7-(3,4-dichlorobenzoyl)-3-(2-methoxyphenyl)-2-(morpholin-4-yl)-5,6,7,8-tetrahydropyrido[3,4-d]pyrimidin-4(3H)-one]
[1]; [4]
  EC50: 11 µM
In vitro; [5]
  CC50 at 3 days: > 50 µM

## CCN(Cc1ccc2c(c1)OCO2)c1nc2c(c(=O)n1-c1ccc(C(=O)NC)cc1)C[C@@H](C)N(C(=O)c1ccc(Cl)c(Cl)c1)C2 [Compound C605]
[1]; [2]
  EC50: 0.15 µM
In vitro; [3]
  CC50 at 3 days: > 50 µM

## CC(C)Nc1nc2c(c(=O)n1-c1ccc(S(C)(=O)=O)cc1)CCN(C(=O)c1ccc(Cl)c(C(F)(F)F)c1)C2 [Compound C191, 7-[4-chloro-3-(trifluoromethyl)benzoyl]-3-[4-(methanesulfonyl)phenyl]-2-[(propan-2-yl)amino]-5,6,7,8-tetrahydropyrido[3,4-d]pyrimidin-4(3H)-one]
[1]; [4]
  EC50: 0.4 µM
In vitro; [5]
  CC50 at 3 days: > 50 µM

## COc1ccc(CNc2nc3c(c(=O)n2-c2ccc(-c4ncco4)cc2)CCN(C(=O)c2ccc(Cl)c(Cl)c2)C3)cc1 [Compound C160, 7-(3,4-dichlorobenzoyl)-2-{[(4-methoxyphenyl)methyl]amino}-3-[4-(1,3-oxazol-2-yl)phenyl]-5,6,7,8-tetrahydropyrido[3,4-d]pyrimidin-4(3H)-one]
[1]; [4]
  EC50: 0.54 µM
In vitro; [5]
  CC50 at 3 days: > 50 µM

## CNC(=O)c1ccc(-n2c(N3CC[C@H]3C)nc3c(c2=O)C[C@@H](C)N(C(=O)c2ccc(Cl)c(Cl)c2)C3)cc1 (single isomer, unassigned) [Compound C311, 4-[(6R)-7-(3,4-dichlorobenzoyl)-6-methyl-2-[(2*R)-2-methylazetidin-1-yl]-4-oxo-5,6,7,8-tetrahydropyrido[3,4-d]pyrimidin-3(4H)-yl]-N-methylbenzamide]
[1]; [4]
  EC50: 0.09 µM
In vitro; [5]
  CC50 at 3 days: > 50 µM

## CNC(=O)c1ccc(-n2c(NCc3c[nH]c4ccccc34)nc3c(c2=O)C[C@@H](C)N(C(=O)c2ccc(Cl)c(Cl)c2)C3)cc1 [Compound C277, 4-[(6R)-7-(3,4-dichlorobenzoyl)-2-{[(1H-indol-3-yl)methyl]amino}-6-methyl-4-oxo-5,6,7,8-tetrahydropyrido[3,4-d]pyrimidin-3(4H)-yl]-N-methylbenzamide]
[1]; [4]
  EC50: 1.27 µM
In vitro; [5]
  CC50 at 3 days: 40.1 µM

## CNC(=O)c1ccc(-n2c(N[C@H](C)CCO)nc3c(c2=O)C[C@@H](C)N(C(=O)c2ccc(Cl)c(Cl)c2)C3)cc1 [Compound C326, 4-[(6R)-7-(3,4-dichlorobenzoyl)-2-{[(2R)-4-hydroxybutan-2-yl]amino}-6-methyl-4-oxo-5,6,7,8-tetrahydropyrido[3,4-d]pyrimidin-3(4H)-yl]-N-methylbenzamide]
[1]; [4]
  EC50: 0.46 µM
In vitro; [5]
  CC50 at 3 days: > 50 µM

## CNC(=O)c1ccc(-n2c(NC(C)C)nc3c(c2=O)C[C@@H](C)N(C(=O)c2cc4c(C)cc(OC)cc4[nH]2)C3)cc1 [Compound C567]
[1]; [2]
  EC50: 0.67 µM
In vitro; [3]
  CC50 at 3 days: 36.5 µM
